# Measured values published in article PMC6467542 (Bioorganic & Medicinal Chemistry, 2019).
# Read-outs that look alike come from different tables or passages of the source.
# Legend:
# in vitro [1] = conditions: mouse, microsomes
# in vitro [2] = conditions: human, microsomes
# [3] = mouse, in vivo
# in vivo = conditions: mouse, iv
# M. tb (strain H37Rv) [4] = assay: MIC90 against non-replicating M.tb (LORA); type: cell-based, Mycobacterium tuberculosis; conditions: Mycobacterium tuberculosis, H37RV, read-out: MIC90 LORA
# Protocol: In these assays, 1 is a potent inhibitor, with MICs of 0.08 and 0.12 µg/mL, respectively. Replacement of the naphthalene C-unit of 1 with various pyridyls produced analogues of considerably lower lipophilicity, with clogP values ranging from 6.89 down to 2.98.
# hERG potassium channel = hERG potassium channel (Homo sapiens, UniProt Q12809); assay: Inhibition of hERG potassium current (patch clamp electrophysiology); conditions: for hERG % inhibition at 3 µM: manual or (less accurate) QPatch assay; for IC50: read-out: hERG IC50, manual patch clamp, 5-concentration dose-response
# M. tb (strain H37Rv) [5] = assay: MIC90 against replicating M.tb (MABA); type: cell-based, Mycobacterium tuberculosis; conditions: Mycobacterium tuberculosis, aerobic (replicating) conditions, 90% inhibition of growth
# CYP3A4 = CYP3A4 (Homo sapiens, UniProt P08684); assay: Inhibition of CYP 3A4; type: in vitro ADME
# M.tb = assay: Efficacy in a mouse model of TB (lung CFU reduction); type: in vivo
# [6] = Cytotoxicity in Vero cells; type: cell-based; conditions: green monkey, Vero green monkey-derived epithelial kidney cells
# [7] = Clearance by human liver microsomes
# [8] = Clearance by mouse liver microsomes
# [9] = Mycobacterium tuberculosis, inhaled or nasal, 288 h; read-out: Log reduction in colony-forming units (CFU), new compound
# hERG potassium channel, sequence (Q12809 whole entry): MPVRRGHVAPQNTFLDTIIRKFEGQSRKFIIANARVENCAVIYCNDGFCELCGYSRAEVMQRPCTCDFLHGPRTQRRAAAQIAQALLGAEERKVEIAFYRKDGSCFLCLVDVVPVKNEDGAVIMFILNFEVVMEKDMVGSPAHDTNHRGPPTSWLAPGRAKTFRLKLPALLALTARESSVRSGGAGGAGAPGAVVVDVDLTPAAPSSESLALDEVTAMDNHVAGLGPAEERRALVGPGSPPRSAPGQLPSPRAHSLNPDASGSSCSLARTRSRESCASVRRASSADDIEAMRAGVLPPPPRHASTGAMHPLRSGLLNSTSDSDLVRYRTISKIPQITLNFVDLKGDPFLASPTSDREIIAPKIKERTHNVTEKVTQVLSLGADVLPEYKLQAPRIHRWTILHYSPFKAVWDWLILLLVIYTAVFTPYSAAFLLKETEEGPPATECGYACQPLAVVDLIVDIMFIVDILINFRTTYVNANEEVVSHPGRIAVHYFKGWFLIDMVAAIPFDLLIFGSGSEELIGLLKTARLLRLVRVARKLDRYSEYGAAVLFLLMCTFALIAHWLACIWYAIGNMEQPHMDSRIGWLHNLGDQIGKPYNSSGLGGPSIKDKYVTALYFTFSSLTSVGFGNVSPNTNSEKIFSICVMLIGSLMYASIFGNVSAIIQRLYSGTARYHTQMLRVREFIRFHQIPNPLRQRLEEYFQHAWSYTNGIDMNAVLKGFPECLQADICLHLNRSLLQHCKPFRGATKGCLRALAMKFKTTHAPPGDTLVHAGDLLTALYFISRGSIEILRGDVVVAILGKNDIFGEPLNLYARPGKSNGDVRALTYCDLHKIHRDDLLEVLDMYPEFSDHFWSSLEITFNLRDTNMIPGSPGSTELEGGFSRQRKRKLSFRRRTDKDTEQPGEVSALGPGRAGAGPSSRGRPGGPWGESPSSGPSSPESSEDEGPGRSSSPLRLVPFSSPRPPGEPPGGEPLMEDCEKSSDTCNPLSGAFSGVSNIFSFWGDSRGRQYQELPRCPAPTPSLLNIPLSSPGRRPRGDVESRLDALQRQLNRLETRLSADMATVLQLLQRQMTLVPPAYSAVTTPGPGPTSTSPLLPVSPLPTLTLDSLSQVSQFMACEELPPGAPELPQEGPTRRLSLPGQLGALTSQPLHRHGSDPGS
# CYP3A4, sequence (P08684 whole entry): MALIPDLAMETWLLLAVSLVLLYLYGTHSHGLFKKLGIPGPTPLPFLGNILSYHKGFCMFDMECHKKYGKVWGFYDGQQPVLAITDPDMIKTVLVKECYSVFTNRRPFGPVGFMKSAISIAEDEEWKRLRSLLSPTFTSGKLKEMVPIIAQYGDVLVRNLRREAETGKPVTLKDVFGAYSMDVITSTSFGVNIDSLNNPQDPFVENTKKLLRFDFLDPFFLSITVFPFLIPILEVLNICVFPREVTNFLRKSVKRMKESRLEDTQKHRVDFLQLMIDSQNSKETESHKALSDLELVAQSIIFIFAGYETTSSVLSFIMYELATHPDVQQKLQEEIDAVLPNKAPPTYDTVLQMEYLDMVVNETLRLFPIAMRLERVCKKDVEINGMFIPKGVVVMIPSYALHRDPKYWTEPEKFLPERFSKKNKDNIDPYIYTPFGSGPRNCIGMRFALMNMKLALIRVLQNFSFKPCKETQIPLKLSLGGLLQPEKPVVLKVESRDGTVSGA
SMILES,microsomal CLint (in vitro [1]) [µL/min/mg],microsomal CLint (in vitro [2]) [µL/min/mg],"AUC: exposure, AUCinf [3] [ng·h/mL]",IV Cl: IV clearance [3] [mL/min/kg],Vz: IV apparent volume of distribution during terminal phase [3] [L/kg],F: oral bioavailability [3] [%],clearance (in vivo) [mL/min/kg],MIC90 (M. tb (strain H37Rv) [4]) [µg/mL],hERG % inhibition at 3 µM (hERG potassium channel) [%/3],MIC90 (M. tb (strain H37Rv) [5]) [µg/mL],log reduction at 20 mg/kg (M.tb; [9]),IC50 (hERG potassium channel) [nM],further results
COc1cccc(C(c2cc3cc(C#N)ccc3nc2OC)C(O)(CCN(C)C)c2cc(C)nc(C)c2)c1F (centres unmarked) [Compound 55],51,12,350,130,53,25,> 50,0.91,37,0.6,,,
COc1cccc(C(O)(CCN(C)C)C(c2cc3cc(Br)ccc3nc2OC)c2cccc3c2OCO3)n1 (centres unmarked) [Compound 15],25,8,5600,13,10,45,,0.58,,0.54,0.3,240,IC50 (CYP3A4): 7600 nM
COc1nc2ccc(C#N)cc2cc1C(c1cccc(C)c1)C(O)(CCN(C)C)c1cccnc1OC (centres unmarked) [Compound 40],53,11,1170,48,6.6,33,,0.76,,0.52,0.5,300,
COc1cccc(C(c2cc3cc(Br)ccc3nc2OC)C(O)(CCN(C)C)c2ccc(C)nc2)c1F (centres unmarked) [Compound 22],99,24,250,67,10,8,> 50,0.28,17,0.3,,,
COc1cccc(C(c2cc3cc(C#N)ccc3nc2OC)C(O)(CCN(C)C)c2cc(C)nc(C)c2)c1OC (centres unmarked) [Compound 57],7,7,1480,71,82,54,> 50,0.61,,0.24,1.9,5200,
COc1cccc(C(c2cc3cc(Br)ccc3nc2OC)C(O)(CCN(C)C)c2cc(C)cnc2C)c1OC (centres unmarked) [Compound 33],17,7,1390,79,77,72,> 50,0.11,,0.07,3.5,1100,
"COc1nc2ccc(Br)cc2cc1[C@@H](c1ccccc1)[C@@](O)(CCN(C)C)c1cccc2ccccc12 [Compound 1, Bedaquiline, reference compound]",,,,,,,,0.12,,0.08,,,IC50 [6]: 4 to 16 µg/mL
COc1nc2ccc(Br)cc2cc1C(c1cccc(C)c1)C(O)(CCN(C)C)c1cccnc1OC (centres unmarked) [Compound 39],20,10,2510,,,,,0.14,,0.13,0.6,450,
COc1cccc(C(c2cc3cc(Br)ccc3nc2OC)C(O)(CCN(C)C)c2cnc(C)cc2C)c1OC (centres unmarked) [Compound 38],46,13,2080,28,23,34,,0.24,,0.02,0.7,3900,
COc1cc(C(O)(CCN(C)C)C(c2cc3cc(Br)ccc3nc2OC)c2ccnc(OC)c2OC)cnc1OC (centres unmarked) [Compound 48],59,5,4280,19,6.0,48,,0.45,,0.06,0.9,3600,
COc1nc2ccc(Br)cc2cc1C(c1cccc2c1OCO2)C(O)(CCN(C)C)c1cccnc1OC (centres unmarked) [Compound 41],19,36,3780,27,20,46,,1.1,26,0.66,0.3,,
CCOc1cc(C(O)(CCN(C)C)C(c2cc3cc(Br)ccc3nc2OC)c2ccnc(OC)c2OC)cc(OC(C)C)n1 (centres unmarked) [Compound 61],,,,,,,,0.06,,0.01,,,"microsomal CLint [7]: 8 µL/min/mg; microsomal CLint [8]: 7 µL/min/mg; log reduction at 20 mg/kg (M.tb; Mycobacterium tuberculosis, inhaled or nasal, 288 h, read-out: Log reduction in colony-forming units (CFU), new compound): 5; F: oral bioavailability (Mouse pharmacokinetics; mice): 50%; AUC: exposure, AUCinf (Mouse pharmacokinetics; mouse): 10900 ng·h/mL; IV Cl: IV clearance (Mouse pharmacokinetics; mouse, IV): 7 mL/min/kg; Vz: IV apparent volume of distribution during terminal phase (Mouse pharmacokinetics; mouse, IV): 44 L/kg"
COc1nc2ccc(Br)cc2cc1C(c1cccc(C)c1)C(O)(CCN(C)C)c1cccnc1C (centres unmarked) [Compound 19],71,35,400,59,33,10,> 50,0.25,26,0.15,,,
